Reference: patent US20250332300A1 (priority 2024, published 2025)
Structures can show the parent of a compound that is named as a salt. Where two headings read alike, the source gives them in different places. Starred links: 1 amine or outer side, 2 acyl side, 3 side chain; linkers in the order of their positions; H or OH if unused. Positions of bridges follow the written chain, without caps; N, C: chain ends. Non-standard residues stand in square brackets, D forms with d. Residues, ends and D or L forms follow the SMILES beside them. Groups on a side chain read outwards from the residue. *: point of attachment. DOTA = O=C(O)CN1CCN(CC(=O)O)CCN(CC(=O)*)CCN(CC(=O)O)CC1; Nle(4-yne,6-yl) = O=C([C@H](CC#CC[*:3])N[*:1])[*:2]; Trp(5-OH) = N[C@@H](Cc1c[nH]c2ccc(O)cc12)C(=O)O; Piperazinyl(4-CH2COOH) = O=C(O)CN1CCN(*)CC1; NMePhe(4-F) = CN[C@@H](Cc1ccc(F)cc1)C(=O)O; NMehPhe = CN[C@@H](CCc1ccccc1)C(=O)O; Aad = N[C@@H](CCCC(=O)O)C(=O)O; Gly(cPr) = N[C@H](C(=O)O)C1CC1; NMeK = CN[C@@H](CCCCN)C(=O)O; NMeDap = CN[C@@H](CN)C(=O)O; NMeC = CN[C@@H](CS)C(=O)O; NMeS = CN[C@@H](CO)C(=O)O; CO = O=C([*:1])[*:2]

Key:
Type in all cases: binding
human HER2 (23-652) [1] = molecular target: T1, human HER2 (23-652) (Homo sapiens, UniProt P04626); assay: Surface plasmon resonance (SPR) for assessment of peptide affinity, human HER2; parameters: towards human HER2 (23-652) and mouse HER2 (23-653); made in house
Summary of the method: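 Binding kinetics fitted from sensorgrams with 280 s peptide association then 3000 s dissociation (30 uL/min), using HER2 (23-652) either directly immobilized (SA/CM5) or anti-Fc-captured; 3 M magnesium chloride used for regeneration.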

mouse HER2 (23-653) [2] = molecular target: T2, mouse HER2 (23-653) (Mus musculus, UniProt P70424); assay: Surface plasmon resonance (SPR) for assessment of peptide affinity, mouse HER2; parameters: mouse HER2 (23-653) using a Cy5 labeled peptide as a probe; made in house; conditions: SPR, mouse HER2 extracellular domain, 25° C., 1:1 binding model; read-out: moHER2-SPR-ONC KD
From the text: Each protein was immobilized either onto a SA sensorchip (Cytiva, BR-1005-31) or CM5 sensorchip (Cytiva, BR-1005-30) to a density of 800-2000 RU.

human HER2 (23-652) [3] = molecular target: T1, human HER2 (23-652); assay: TR-FRET competition assay for peptide potency, human HER2; parameters: towards human HER2 (23-652) and mouse HER2 (23-653); made in house; host or cells: mammalian cells
mouse HER2 (23-653) [4] = molecular target: T2, mouse HER2 (23-653); assay: TR-FRET competition assay for peptide potency, mouse HER2; parameters: mouse HER2 (23-653) using a Cy5 labeled peptide as a probe; made in house; host or cells: mammalian cells
[5] = SPR, human HER2 extracellular domain, 25° C., 1:1 binding model, read-out: huHER2-SPR-ONC KD
[6] = TR-FRET competition with Cy5 labeled peptide probe, 0.1 nM mouse HER2, 24 h incubation, read-out: moHER2 TR-FRET IC50
[7] = TR-FRET competition with Cy5 labeled peptide probe, 0.1 nM human HER2, 24 h incubation, read-out: huHER2 TR-FRET IC50

For CC(=O)N[C@H]1CCC(=O)NC[C@@H](C(=O)N(C)[C@@H](Cc2ccc(F)cc2)C(N)=O)NC(=O)[C@H](C2CC2)NC(=O)[C@H](Cc2c[nH]c3ccccc23)NC(=O)[C@H](Cc2c[nH]c3ccc(O)cc23)NC(=O)[C@H](CO)N(C)C(=O)[C@H](CCc2ccccc2)N(C)C(=O)[C@H](CO)NC(=O)[C@H](Cc2ccc(O)cc2)NC1=O [Example A12, (3S,6S,9S,12S,15S,18S,21S,24S,27S)-9-((1H-indol-3-yl)methyl)-27-acetamido-N-((S)-1-amino-3-(4-fluorophenyl)-1-oxopropan-2-yl)-6-cyclopropyl-12-((5-hydroxy-1H-indol-3-yl)methyl)-24-(4-hydroxybenzyl)-15,21-bis(hydroxymethyl)-N,16,19-trimethyl-5,8,11,14,17,20,23,26,30-nonaoxo-18-phenethyl-1,4,7,10,13,16,19,22,25-nonaazacyclotriacontane-3-carboxamide], the Kd (human HER2 (23-652) [1]; [5]) was 1.34 µM, the Kd (mouse HER2 (23-653) [2]) was 0.864 µM and the IC50 (human HER2 (23-652) [3]; read-out: huHER2 TR-FRET IC50) was over 1 µM. For the same molecule, the IC50 (mouse HER2 (23-653) [4]; [6]) was over 1 µM.
CC(=O)NCCCC[C@H]1C(=O)N[C@@H](Cc2c[nH]c3ccc(O)cc23)C(=O)N[C@@H](Cc2c[nH]c3ccccc23)C(=O)N[C@@H](C2CC2)C(=O)N(C)[C@H](C(=O)N(C)[C@@H](Cc2ccc(F)cc2)C(=O)N[C@@H](CCCCNC(=O)CN2CCN(CC(=O)O)CCN(CC(=O)O)CCN(CC(=O)O)CC2)C(N)=O)CNC(=O)CCC[C@H](NC(=O)CO)C(=O)N[C@@H](Cc2ccc(O)cc2)C(=O)N[C@@H](CO)C(=O)N(C)[C@@H](CCc2ccccc2)C(=O)N1C [Example C15] showed a Kd (human HER2 (23-652) [1]; [5]) of under 0.0001 µM, a Kd (mouse HER2 (23-653) [2]) of under 0.0001 µM and an IC50 (human HER2 (23-652) [3]; [7]) of under 0.0001 µM. The IC50 (mouse HER2 (23-653) [4]; [6]) was 0.0002 µM.
CC(=O)NCCCC[C@H]1C(=O)N[C@@H](Cc2c[nH]c3ccc(O)cc23)C(=O)N[C@@H](Cc2c[nH]c3ccccc23)C(=O)N[C@@H](C2CC2)C(=O)N(C)[C@H](C(=O)N(C)[C@@H](Cc2ccc(F)cc2)C(=O)N[C@@H](CCCCNC(=O)CCC(C(=O)O)N2CCN(CC(=O)O)CCN(CC(=O)O)CC2)C(N)=O)CNC(=O)CCC[C@H](NC(C)=O)C(=O)N[C@@H](Cc2ccc(O)cc2)C(=O)N[C@@H](CO)C(=O)N(C)[C@@H](CCc2ccccc2)C(=O)N1C (some centres unmarked) [Example B13] showed a Kd (human HER2 (23-652) [1]; [5]) of under 0.0001 µM, a Kd (mouse HER2 (23-653) [2]) of under 0.0001 µM and an IC50 (human HER2 (23-652) [3]; read-out: huHER2 TR-FRET IC50) of under 0.0001 µM. For the same molecule, the IC50 (mouse HER2 (23-653) [4]; [6]) was under 0.0001 µM.
With CC(=O)NCCCC[C@H]1C(=O)N[C@@H](Cc2c[nH]c3ccc(O)cc23)C(=O)N[C@@H](C)C(=O)N[C@@H](C2CC2)C(=O)N(C)[C@H](C(=O)N(C)[C@@H](Cc2ccc(F)cc2)C(=O)N[C@@H](CCCCN)C(N)=O)CNC(=O)CCC[C@H](NC(C)=O)C(=O)N[C@@H](Cc2ccc(O)cc2)C(=O)N[C@@H](CO)C(=O)N(C)[C@@H](CCc2ccccc2)C(=O)N1C [Example A45, (3S,6S,9S,12S,15S,18S,21S,24S,27S)-27-acetamido-15-(4-acetamidobutyl)-6-cyclopropyl-N-((S)-1-(((S)-1,6-diamino-1-oxohexan-2-y1)amino)-3-(4-fluorophenyl)-1-oxopropan-2-y1)-12-((5-hydroxy-1H-indol-3-yl)methyl)-24-(4-hydroxybenzyl)-21-(hydroxymethyl)-N,4,9,16,19-pentamethyl-5,8,11,14,17,20,23,26,31-nonaoxo-18-phenethyl-1,4,7,10,13,16,19,22,25-nonaazacyclohentriacontane-3-carboxamide TFA salt] (Ac-[Aad]YS[NMehPhe][NMeK](Ac)[Trp(5-OH)]A[Gly(cPr)][NMeDap][NMePhe(4-F)]K-NH2; lactam 1-9) the Kd (human HER2 (23-652) [1]; [5]) was over 6 µM, the Kd (mouse HER2 (23-653) [2]) was over 6 µM and the IC50 (human HER2 (23-652) [3]; read-out: huHER2 TR-FRET IC50) was over 0.9 µM. For the same molecule, the IC50 (mouse HER2 (23-653) [4]; [6]) was over 1 µM.
Work on CC(=O)N[C@H]1CCC(=O)NC[C@@H](C(=O)N(C)[C@@H](Cc2ccc(F)cc2)C(N)=O)N(C)C(=O)[C@H](C2CC2)NC(=O)[C@H](Cc2c[nH]c3ccccc23)NC(=O)[C@H](Cc2c[nH]c3ccc(O)cc23)NC(=O)[C@H](CO)N(C)C(=O)[C@H](CCc2ccccc2)N(C)C(=O)[C@H](CCCC(=O)O)NC(=O)[C@H](Cc2ccc(O)cc2)NC1=O [Example A27, 4-((2S,5S,8S,11S,14S,17S,20S,23S,29S)-17-((1H-indol-3-yl)methyl)-29-acetamido-23-(((S)-1-amino-3-(4-fluorophenyl)-1-oxopropan-2-yl)(methyl)carbamoyl)-20-cyclopropyl-14-((5-hydroxy-1H-indol-3-yl)methyl)-2-(4-hydroxybenzyl)-11-(hydroxymethyl)-7,10,22-trimethyl-3,6,9,12,15,18,21,26,30-nonaoxo-8-phenethyl-1,4,7,10,13,16,19,22,25-nonaazacyclotriacontan-5-yl)butanoic acid] (Ac-EY[Aad][NMehPhe][NMeS][Trp(5-OH)]W[Gly(cPr)][NMeDap][NMePhe(4-F)]-NH2; lactam 1-9) yielded a Kd (human HER2 (23-652) [1]; [5]) of 0.248 µM, a Kd (mouse HER2 (23-653) [2]) of 0.21 µM and an IC50 (human HER2 (23-652) [3]; read-out: huHER2 TR-FRET IC50) of 0.391 µM. The IC50 (mouse HER2 (23-653) [4]; [6]) was 0.627 µM.
For CC(=O)NCCCC[C@H]1C(=O)N[C@@H](Cc2c[nH]c3ccc(O)cc23)C(=O)N[C@@H](Cc2c[nH]c3ccccc23)C(=O)N[C@@H](C2CC2)C(=O)N(C)[C@H](C(=O)N(C)[C@@H](Cc2ccc(F)cc2)C(=O)N[C@@H](CCCCNC(=O)CN2CCN(CC(=O)O)CCN(CC(=O)O)CCN(CC(=O)O)CC2)C(N)=O)CNC(=O)CCC[C@H](NC(C)=O)C(=O)N[C@@H](Cc2ccc(O)cc2)C(=O)N[C@@H](CCCCNC(=O)N2CCN(CC(=O)O)CC2)C(=O)N(C)[C@@H](CCc2ccccc2)C(=O)N1C [Example C7] (Ac-[Aad]YK([CO-Piperazinyl(4-CH2COOH)])[NMehPhe][NMeK](Ac)[Trp(5-OH)]W[Gly(cPr)][NMeDap][NMePhe(4-F)]K(DOTA)-NH2; lactam 1-9), the Kd (human HER2 (23-652) [1]; [5]) was 1.15 µM, the Kd (mouse HER2 (23-653) [2]) was 0.799 µM and the IC50 (human HER2 (23-652) [3]; [7]) was 0.236 µM. For the same molecule, the IC50 (human HER2 (23-652) [3]; value in parentheses (**): recalculated after further repetition, read-out: huHER2 TR-FRET IC50, recalculated value achieved after further repetition) was 0.164 µM, the IC50 (mouse HER2 (23-653) [4]; [6]) was 0.422 µM and the IC50 (mouse HER2 (23-653) [4]; value in parentheses (**): recalculated after further repetition, read-out: moHER2 TR-FRET IC50, recalculated value achieved after further repetition) was 0.434 µM.
CN1C(=O)[C@H](CO)NC(=O)[C@H](Cc2ccc(O)cc2)NC(=O)[C@@H](N)CC#CCSC[C@@H](C(=O)N(C)[C@@H](Cc2ccc(F)cc2)C(N)=O)N(C)C(=O)[C@H](C2CC2)NC(=O)[C@H](Cc2c[nH]c3ccccc23)NC(=O)[C@H](Cc2c[nH]c3ccc(O)cc23)NC(=O)[C@H](CO)N(C)C(=O)[C@@H]1CCc1ccccc1 [Example A52, (3R,6S,9S,12S,15S,18S,21S,24S,27S)-9-((1H-indol-3-yl)methyl)-27-amino-N—((S)-1-amino-3-(4-fluorophenyl)-1-oxopropan-2-yl)-6-cyclopropyl-12-((5-hydroxy-1H-indol-3-yl)methyl)-24-(4-hydroxybenzyl)-15,21-bis(hydroxymethyl)-N,4,16,19-tetramethyl-5,8,11,14,17,20,23,26-octaoxo-18-phenethyl-1-thia-4,7,10,13,16,19,22,25-octaazacyclohentriacont-29-yne-3-carboxamide TFA salt] (H-[Nle(4-yne,6-yl)]YS[NMehPhe][NMeS][Trp(5-OH)]W[Gly(cPr)][NMeC][NMePhe(4-F)]-NH2; thioether 1-9) gave a Kd (human HER2 (23-652) [1]) of 0.997 µM, a Kd (mouse HER2 (23-653) [2]) of 0.57 µM and an IC50 (human HER2 (23-652) [3]; huHER2 TR-FRET IC50, TR-FRET competition with Cy5 labeled peptide probe, 0.1 nM human HER2, 24 h incubation) of 0.427 µM. The IC50 (human HER2 (23-652) [3]; huHER2 TR-FRET IC50, recalculated value achieved after further repetition, value in parentheses (**): recalculated after further repetition) was 0.567 µM and the IC50 (mouse HER2 (23-653) [4]; [6]) was over 1 µM.
In the case of CC(=O)NCCCC[C@H]1C(=O)N[C@@H](Cc2c[nH]c3ccc(O)cc23)C(=O)N[C@@H](Cc2c[nH]c3ccccc23)C(=O)N[C@@H](C2CC2)C(=O)N(C)[C@H](C(=O)N(C)[C@@H](Cc2ccc(F)cc2)C(=O)N2CCC[C@H]2C(N)=O)CNC(=O)CCC[C@H](NC(C)=O)C(=O)N[C@@H](Cc2ccc(O)cc2)C(=O)N[C@@H](CO)C(=O)N(C)[C@@H](CCc2ccccc2)C(=O)N1C [Example A2, (3S,6S,9S,12S,15S,18S,21S,24S,27S)-9-((1H-indol-3-yl)methyl)-27-acetamido-15-(4-acetamidobutyl)-N-((S)-1-((S)-2-carbamoylpyrrolidin-1-yl)-3-(4-fluorophenyl)-1-oxopropan-2-yl)-6-cyclopropyl-12-((5-hydroxy-1H-indol-3-yl)methyl)-24-(4-hydroxybenzyl)-21-(hydroxymethyl)-N,4,16,19-tetramethyl-5,8,11,14,17,20,23,26,31-nonaoxo-18-phenethyl-1,4,7,10,13,16,19,22,25-nonaazacyclohentriacontane-3-carboxamide], the Kd (human HER2 (23-652) [1]; [5]) is reported as 0.0004 µM, the Kd (mouse HER2 (23-653) [2]) is reported as 0.0002 µM and the IC50 (human HER2 (23-652) [3]; read-out: huHER2 TR-FRET IC50) is reported as 0.0003 µM. For the same molecule, the IC50 (mouse HER2 (23-653) [4]; [6]) was 0.0003 µM.
